Test results as given in PubChem BioAssay (NCI).
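Five concentrations, 48 hours, 96-well plates. The concentration for full growth arrest is given as TGI.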

Key:
Assay in all cases: growth of human tumour cells (NCI), 48 h
786-0 renal = tested on: 786-0 renal
A498 renal = tested on: A498 renal
A549 NSCLC = tested on: A549 NSCLC
ACHN renal = tested on: ACHN renal
BT-549 breast = tested on: BT-549 breast
CAKI-1 renal = tested on: CAKI-1 renal
COLO 205 colon = tested on: COLO 205 colon
DU-145 prostate = tested on: DU-145 prostate
EKVX NSCLC = tested on: EKVX NSCLC
HCC-2998 colon = tested on: HCC-2998 colon
HCT-116 colon = tested on: HCT-116 colon
HCT-15 colon = tested on: HCT-15 colon
HL-60(TB) leukemia = tested on: HL-60(TB) leukemia
HOP-62 NSCLC = tested on: HOP-62 NSCLC
HS 578T breast = tested on: HS 578T breast
HT29 colon = tested on: HT29 colon
IGROV1 ovarian = tested on: IGROV1 ovarian
K-562 leukemia = tested on: K-562 leukemia
KM12 colon = tested on: KM12 colon
M14 melanoma = tested on: M14 melanoma
MALME-3M melanoma = tested on: MALME-3M melanoma
MCF7 breast = tested on: MCF7 breast
MDA-MB-231 breast = tested on: MDA-MB-231 breast
MDA-MB-435 = tested on: MDA-MB-435
MDA-N = tested on: MDA-N
MOLT-4 leukemia = tested on: MOLT-4 leukemia
NCI-H226 lung = tested on: NCI-H226 lung
NCI-H460 lung = tested on: NCI-H460 lung
NCI-H522 lung = tested on: NCI-H522 lung
OVCAR-3 ovarian = tested on: OVCAR-3 ovarian
OVCAR-4 ovarian = tested on: OVCAR-4 ovarian
OVCAR-5 ovarian = tested on: OVCAR-5 ovarian
OVCAR-8 ovarian = tested on: OVCAR-8 ovarian
PC-3 prostate = tested on: PC-3 prostate
RPMI-8226 leukemia = tested on: RPMI-8226 leukemia
RXF 393 renal = tested on: RXF 393 renal
SF-268 CNS = tested on: SF-268 CNS
SF-295 CNS = tested on: SF-295 CNS
SF-539 CNS = tested on: SF-539 CNS
SK-MEL-2 melanoma = tested on: SK-MEL-2 melanoma
SK-MEL-28 melanoma = tested on: SK-MEL-28 melanoma
SK-MEL-5 melanoma = tested on: SK-MEL-5 melanoma
SK-OV-3 ovarian = tested on: SK-OV-3 ovarian
SN12C renal = tested on: SN12C renal
SNB-19 CNS = tested on: SNB-19 CNS
SNB-75 CNS = tested on: SNB-75 CNS
SW-620 colon = tested on: SW-620 colon
T-47D breast = tested on: T-47D breast
TK-10 renal = tested on: TK-10 renal
U251 CNS = tested on: U251 CNS
UACC-257 melanoma = tested on: UACC-257 melanoma
UACC-62 melanoma = tested on: UACC-62 melanoma
UO-31 renal = tested on: UO-31 renal
CCRF-CEM leukemia = tested on: CCRF-CEM leukemia
HOP-92 NSCLC = tested on: HOP-92 NSCLC
NCI-H23 lung = tested on: NCI-H23 lung
NCI/ADR-RES ovarian = tested on: NCI/ADR-RES ovarian
LOX IMVI melanoma = tested on: LOX IMVI melanoma

## COc1ccc2nc3cc(Cl)ccc3c(Nc3ccc(O)c(CN4CCN(C)CC4)c3)c2c1
786-0 renal
  TGI: 3 µM
A498 renal
  TGI: 8.68 µM
A549 NSCLC
  TGI: 3.47 µM
ACHN renal
  TGI: 3 µM
BT-549 breast
  TGI: 38.6 µM
CAKI-1 renal
  TGI: 3.98 µM
COLO 205 colon
  TGI: 3.04 µM
DU-145 prostate
  TGI: 3.73 µM
EKVX NSCLC
  TGI: 3.52 µM
HCC-2998 colon
  TGI: 2.42 µM
HCT-116 colon
  TGI: 3.74 µM
HCT-15 colon
  TGI: 5.68 µM
HL-60(TB) leukemia
  TGI: 3.57 µM
HOP-62 NSCLC
  TGI: 4.07 µM
HS 578T breast
  TGI: 4.65 µM
HT29 colon
  TGI: 3.54 µM
IGROV1 ovarian
  TGI: 3.3 µM
K-562 leukemia
  TGI: 3.71 µM
KM12 colon
  TGI: 3.85 µM
M14 melanoma
  TGI: 3.53 µM
MALME-3M melanoma
  TGI: 3.21 µM
MCF7 breast
  TGI: 3.12 µM
MDA-MB-231 breast
  TGI: 2.99 µM
MDA-MB-435
  TGI: 3 µM
MDA-N
  TGI: 3.21 µM
MOLT-4 leukemia
  TGI: 4.94 µM
NCI-H226 lung
  TGI: 38.9 µM
NCI-H460 lung
  TGI: 3.22 µM
NCI-H522 lung
  TGI: 3.33 µM
OVCAR-3 ovarian
  TGI: 3.76 µM
OVCAR-4 ovarian
  TGI: 3.19 µM
OVCAR-5 ovarian
  TGI: 5.34 µM
OVCAR-8 ovarian
  TGI: 3.56 µM
PC-3 prostate
  TGI: 3.22 µM
RPMI-8226 leukemia
  TGI: 4.85 µM
RXF 393 renal
  TGI: 3.22 µM
SF-268 CNS
  TGI: 6.42 µM
SF-295 CNS
  TGI: 3.81 µM
SF-539 CNS
  TGI: 3.22 µM
SK-MEL-2 melanoma
  TGI: 3.29 µM
SK-MEL-28 melanoma
  TGI: 3.62 µM
SK-MEL-5 melanoma
  TGI: 3.11 µM
SK-OV-3 ovarian
  TGI: 11.1 µM
SN12C renal
  TGI: 3.93 µM
SNB-19 CNS
  TGI: 5.96 µM
SNB-75 CNS
  TGI: 3.91 µM
SW-620 colon
  TGI: 5.1 µM
T-47D breast
  TGI: 4.48 µM
TK-10 renal
  TGI: 3.79 µM
U251 CNS
  TGI: 3.15 µM
UACC-257 melanoma
  TGI: 3.45 µM
UACC-62 melanoma
  TGI: 3.07 µM
UO-31 renal
  TGI: 3.31 µM

## Cc1cc(S(=O)(=O)O)ccc1N=Nc1c(O)ccc2ccccc12
786-0 renal
  TGI: > 100 µM
A549 NSCLC
  TGI: > 100 µM
ACHN renal
  TGI: > 100 µM
BT-549 breast
  TGI: > 100 µM
CAKI-1 renal
  TGI: > 100 µM
CCRF-CEM leukemia
  TGI: > 100 µM
COLO 205 colon
  TGI: > 100 µM
DU-145 prostate
  TGI: > 100 µM
EKVX NSCLC
  TGI: > 100 µM
HCT-116 colon
  TGI: > 100 µM
HCT-15 colon
  TGI: > 100 µM
HL-60(TB) leukemia
  TGI: > 100 µM
HOP-62 NSCLC
  TGI: > 100 µM
HOP-92 NSCLC
  TGI: > 100 µM
HS 578T breast
  TGI: > 100 µM
HT29 colon
  TGI: > 100 µM
IGROV1 ovarian
  TGI: > 100 µM
K-562 leukemia
  TGI: > 100 µM
KM12 colon
  TGI: > 100 µM
M14 melanoma
  TGI: > 100 µM
MALME-3M melanoma
  TGI: > 100 µM
MDA-MB-231 breast
  TGI: > 100 µM
MDA-MB-435
  TGI: > 100 µM
MDA-N
  TGI: > 100 µM
MOLT-4 leukemia
  TGI: > 100 µM
NCI-H226 lung
  TGI: > 100 µM
NCI-H23 lung
  TGI: > 100 µM
NCI-H522 lung
  TGI: > 100 µM
NCI/ADR-RES ovarian
  TGI: > 100 µM
OVCAR-3 ovarian
  TGI: > 100 µM
OVCAR-4 ovarian
  TGI: > 100 µM
OVCAR-5 ovarian
  TGI: > 100 µM
OVCAR-8 ovarian
  TGI: > 100 µM
PC-3 prostate
  TGI: > 100 µM
RPMI-8226 leukemia
  TGI: > 100 µM
RXF 393 renal
  TGI: > 100 µM
SF-268 CNS
  TGI: > 100 µM
SF-295 CNS
  TGI: > 100 µM
SK-MEL-2 melanoma
  TGI: > 100 µM
SK-MEL-28 melanoma
  TGI: > 100 µM
SK-MEL-5 melanoma
  TGI: > 100 µM
SK-OV-3 ovarian
  TGI: > 100 µM
SN12C renal
  TGI: > 100 µM
SNB-19 CNS
  TGI: > 100 µM
SNB-75 CNS
  TGI: > 100 µM
SW-620 colon
  TGI: > 100 µM
T-47D breast
  TGI: > 100 µM
TK-10 renal
  TGI: > 100 µM
U251 CNS
  TGI: > 100 µM
UACC-257 melanoma
  TGI: > 100 µM
UACC-62 melanoma
  TGI: > 100 µM
UO-31 renal
  TGI: > 100 µM

## NNC(=O)c1n[nH]n(N)c1=S
786-0 renal
  TGI: > 100 µM
A498 renal
  TGI: > 100 µM
A549 NSCLC
  TGI: > 100 µM
ACHN renal
  TGI: > 100 µM
BT-549 breast
  TGI: > 100 µM
CAKI-1 renal
  TGI: > 100 µM
CCRF-CEM leukemia
  TGI: > 100 µM
COLO 205 colon
  TGI: > 100 µM
DU-145 prostate
  TGI: > 100 µM
EKVX NSCLC
  TGI: > 100 µM
HCC-2998 colon
  TGI: > 100 µM
HCT-116 colon
  TGI: > 100 µM
HCT-15 colon
  TGI: > 100 µM
HOP-62 NSCLC
  TGI: > 100 µM
HS 578T breast
  TGI: > 100 µM
HT29 colon
  TGI: > 100 µM
IGROV1 ovarian
  TGI: > 100 µM
K-562 leukemia
  TGI: > 100 µM
KM12 colon
  TGI: > 100 µM
LOX IMVI melanoma
  TGI: > 100 µM
M14 melanoma
  TGI: > 100 µM
MALME-3M melanoma
  TGI: > 100 µM
MDA-MB-231 breast
  TGI: > 100 µM
MDA-MB-435
  TGI: > 100 µM
MDA-N
  TGI: > 100 µM
MOLT-4 leukemia
  TGI: > 100 µM
NCI-H226 lung
  TGI: > 100 µM
NCI-H23 lung
  TGI: > 100 µM
NCI-H460 lung
  TGI: > 100 µM
NCI-H522 lung
  TGI: > 100 µM
NCI/ADR-RES ovarian
  TGI: > 100 µM
OVCAR-3 ovarian
  TGI: > 100 µM
OVCAR-4 ovarian
  TGI: > 100 µM
OVCAR-5 ovarian
  TGI: > 100 µM
OVCAR-8 ovarian
  TGI: > 100 µM
PC-3 prostate
  TGI: > 100 µM
RPMI-8226 leukemia
  TGI: > 100 µM
RXF 393 renal
  TGI: > 100 µM
SF-268 CNS
  TGI: > 100 µM
SF-295 CNS
  TGI: > 100 µM
SF-539 CNS
  TGI: > 100 µM
SK-MEL-2 melanoma
  TGI: > 100 µM
SK-MEL-28 melanoma
  TGI: > 100 µM
SK-MEL-5 melanoma
  TGI: > 100 µM
SK-OV-3 ovarian
  TGI: > 100 µM
SN12C renal
  TGI: > 100 µM
SNB-75 CNS
  TGI: > 100 µM
SW-620 colon
  TGI: > 100 µM
T-47D breast
  TGI: > 100 µM
TK-10 renal
  TGI: > 100 µM
U251 CNS
  TGI: > 100 µM
UACC-257 melanoma
  TGI: > 100 µM
UACC-62 melanoma
  TGI: > 100 µM
UO-31 renal
  TGI: > 100 µM
